Laboratory results as given in patent publication US12077503B2, “Substituted cyclic amides and their use as herbicides” (FMC CORPORATION, priority 2015, dated 2024).

Assays:
Assay type in all cases: in vivo
[1] = tested on: Kochia (Kochia scoparia); assay: Test A preemergence; conditions: for Plant response rating, Kochia: 125 g ai/ha, preemergence, 0 to 100 scale (0 no effect, 100 complete control); for Kochia plant response rating (0 to 100 scale): Preemergence, 500 g ai/ha, 0 is no effect, 100 is complete control
Method in brief: (§1)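 In a loam soil and sand blend, planted seeds got a preemergence directed soil spray, and young plants at the one- to two-leaf stage, 2–10 cm high, got a postemergence application; ~10 d greenhouse hold; injury rated visually, 0 = none, 100 = complete control.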

[2] = tested on: pigweed (Amaranthus retroflexus); assay: Test A preemergence; conditions: for Plant response rating, Pigweed: 125 g ai/ha, preemergence, 0 to 100 scale (0 no effect, 100 complete control); for Pigweed plant response rating (0 to 100 scale): Preemergence, 500 g ai/ha, 0 is no effect, 100 is complete control
[3] = tested on: ragweed (common ragweed, Ambrosia elatior); assay: Test A preemergence; conditions: for Plant response rating, Ragweed: 125 g ai/ha, preemergence, 0 to 100 scale (0 no effect, 100 complete control); for Ragweed plant response rating (0 to 100 scale): Preemergence, 500 g ai/ha, 0 is no effect, 100 is complete control
Method in brief: as §1

[4] = tested on: barnyardgrass (Echinochloa crus-galli); assay: Test A preemergence; conditions: for Plant response rating, Barnyardgrass: 125 g ai/ha, preemergence, 0 to 100 scale (0 no effect, 100 complete control); for Barnyardgrass plant response rating (0 to 100 scale): Preemergence, 500 g ai/ha, 0 is no effect, 100 is complete control
Method in brief: as §1

[5] = tested on: giant foxtail (Setaria faberii); assay: Test A preemergence; conditions: for Plant response rating, Foxtail, Giant: 125 g ai/ha, preemergence, 0 to 100 scale (0 no effect, 100 complete control); for Foxtail, Giant plant response rating (0 to 100 scale): Preemergence, 500 g ai/ha, 0 is no effect, 100 is complete control
Method in brief: as §1

[6] = tested on: ryegrass, Italian (Italian ryegrass, Lolium multiflorum); assay: Test A preemergence; conditions: for Plant response rating, Ryegrass, Italian: 125 g ai/ha, preemergence, 0 to 100 scale (0 no effect, 100 complete control); for Ryegrass, Italian plant response rating (0 to 100 scale): Preemergence, 500 g ai/ha, 0 is no effect, 100 is complete control
Method in brief: as §1

[7] = tested on: Kochia (Kochia scoparia); assay: Test A postemergence; conditions: postemergence; for Kochia plant response rating: 125 g ai/ha, visual injury rating on 0 to 100 scale (0 no effect, 100 complete control), approx. 10 d; for Plant response rating, Kochia: 500 g ai/ha, 0 to 100 scale, 0 no effect, 100 complete control
Method in brief: as §1

[8] = tested on: pigweed (Amaranthus retroflexus); assay: Test A postemergence; conditions: postemergence; for Pigweed plant response rating: 125 g ai/ha, visual injury rating on 0 to 100 scale (0 no effect, 100 complete control), approx. 10 d; for Plant response rating, Pigweed: 500 g ai/ha, 0 to 100 scale, 0 no effect, 100 complete control
Method in brief: as §1

[9] = tested on: corn (Zea mays); assay: Test A postemergence; conditions: postemergence; for Corn plant response rating: 125 g ai/ha, visual injury rating on 0 to 100 scale (0 no effect, 100 complete control), approx. 10 d; for Plant response rating, Corn: 500 g ai/ha, 0 to 100 scale, 0 no effect, 100 complete control
Method in brief: as §1

[10] = tested on: wheat (Triticum aestivum); assay: Test A postemergence; conditions: postemergence; for Wheat plant response rating: 125 g ai/ha, visual injury rating on 0 to 100 scale (0 no effect, 100 complete control), approx. 10 d; for Plant response rating, Wheat: 500 g ai/ha, 0 to 100 scale, 0 no effect, 100 complete control
Method in brief: as §1

[11] = tested on: blackgrass (Alopecurus myosuroides); assay: Test A postemergence
Method in brief: as §1

[12] = tested on: ragweed (common ragweed, Ambrosia elatior); assay: Test A postemergence; conditions: postemergence; for Ragweed plant response rating: 125 g ai/ha, visual injury rating on 0 to 100 scale (0 no effect, 100 complete control), approx. 10 d; for Plant response rating, Ragweed: 500 g ai/ha, 0 to 100 scale, 0 no effect, 100 complete control
Method in brief: as §1

[13] = tested on: barnyardgrass (Echinochloa crus-galli); assay: Test A postemergence
Method in brief: as §1

[14] = tested on: giant foxtail (Setaria faberii); assay: Test A postemergence; conditions: postemergence; for Foxtail, Giant plant response rating: 125 g ai/ha, visual injury rating on 0 to 100 scale (0 no effect, 100 complete control), approx. 10 d; for Plant response rating, Foxtail, Giant: 500 g ai/ha, 0 to 100 scale, 0 no effect, 100 complete control
Method in brief: as §1

[15] = tested on: Galium (catchweed bedstraw, Galium aparine); assay: Test A postemergence; conditions: postemergence; for Galium plant response rating: 125 g ai/ha, visual injury rating on 0 to 100 scale (0 no effect, 100 complete control), approx. 10 d; for Plant response rating, Galium: 500 g ai/ha, 0 to 100 scale, 0 no effect, 100 complete control
Method in brief: as §1

[16] = tested on: ryegrass, Italian (Italian ryegrass, Lolium multiflorum); assay: Test A postemergence; conditions: postemergence; for Ryegrass, Italian plant response rating: 125 g ai/ha, visual injury rating on 0 to 100 scale (0 no effect, 100 complete control), approx. 10 d; for Plant response rating, Ryegrass, Italian: 500 g ai/ha, 0 to 100 scale, 0 no effect, 100 complete control
Method in brief: as §1

[17] = tested on: ducksalad (Heteranthera limosa); assay: Test B flooded paddy test; conditions: Flood, 500 g ai/ha; 0 to 100 scale where 0 is no effect and 100 is complete control; 13 to 15 d
Method in brief: (§2)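 Flooding to 3 cm over soil accompanied treatment, which consisted of adding compound to the standing water around 2-leaf plants; depth was then maintained. Visual assessment versus controls followed at 13 to 15 d (scale 0–100, 0 meaning no effect).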

[18] = tested on: barnyardgrass (Echinochloa crus-galli); assay: Test B flooded paddy test; conditions: Flood, 500 g ai/ha; 0 to 100 scale where 0 is no effect and 100 is complete control; 13 to 15 d
Method in brief: as §2

[19] = tested on: sedge, umbrella (small-flower umbrella sedge, Cyperus difformis); assay: Test B flooded paddy test; conditions: Flood, 500 g ai/ha; 0 to 100 scale where 0 is no effect and 100 is complete control; 13 to 15 d
Method in brief: as §2

[20] = tested on: rice (Oryra sativa); assay: Test B flooded paddy test; conditions: Flood, 500 g ai/ha; 0 to 100 scale where 0 is no effect and 100 is complete control; 13 to 15 d
Method in brief: as §2

[21] = 500 g ai/ha, postemergence, 0 to 100 scale, 0 no effect, 100 complete control
[22] = Postemergence, 125 g ai/ha, visual injury, 0 to 100 scale (0 no effect, 100 complete control), approx. 10 d

| SMILES | Plant response rating, Kochia [1] | Kochia plant response rating (0 to 100 scale) [1] | Plant response rating, Pigweed [2] | Pigweed plant response rating (0 to 100 scale) [2] | Plant response rating, Ragweed [3] | Ragweed plant response rating (0 to 100 scale) [3] | Plant response rating, Barnyardgrass [4] | Barnyardgrass plant response rating (0 to 100 scale) [4] | Plant response rating, Foxtail, Giant [5] | Foxtail, Giant plant response rating (0 to 100 scale) [5] | Plant response rating, Ryegrass, Italian [6] | Ryegrass, Italian plant response rating (0 to 100 scale) [6] | Kochia plant response rating [7] | Plant response rating, Kochia [7] | Pigweed plant response rating [8] | Plant response rating, Pigweed [8] | Corn plant response rating [9] | Plant response rating, Corn [9] | Wheat plant response rating [10] | Plant response rating, Wheat [10] | further results |
| --- | --- | --- | --- | --- | --- | --- | --- | --- | --- | --- | --- | --- | --- | --- | --- | --- | --- | --- | --- | --- | --- |
| O=C1NCC(c2cccc(OCC(F)F)c2)C1C(=O)Nc1ccc(F)cc1F (stereo not drawn) [Compound 388] | 0 | 0 | 0 | 0 | 0 | 0 | 60 | 80 | 80 | 90 | 0 | 0 | 0 | 0 | 0 | 0 | 0 | 0 | 0 | 0 | Plant response rating, Blackgrass [11, 21]: 50; Plant response rating, Blackgrass [11, 22]: 10; Ragweed plant response rating [12]: 0; Plant response rating, Ragweed [12]: 0; Plant response rating, Barnyardgrass [13, 21]: 70; Plant response rating, Barnyardgrass [13, 22]: 30; Foxtail, Giant plant response rating [14]: 50; Plant response rating, Foxtail, Giant [14]: 80; Galium plant response rating [15]: 0; Plant response rating, Galium [15]: 30; Ryegrass, Italian plant response rating [16]: 0; Plant response rating, Ryegrass, Italian [16]: 0; Plant response rating, Ducksalad [17]: 75; Plant response rating, Barnyardgrass [18]: 0; Plant response rating, Sedge, Umbrella [19]: 0; Plant response rating, Rice [20]: 0 |
| O=C1NCC(c2cccc(OCC(F)F)c2)C1C(=O)Nc1ccccc1Cl (stereo not drawn) [Compound 390] | 0 | 0 | 0 | 0 | 0 | 0 | 60 | 80 | 80 | 90 | 0 | 0 | 0 | 0 | 0 | 20 | 0 | 0 | 0 | 0 | Plant response rating, Blackgrass [11, 21]: 0; Plant response rating, Blackgrass [11, 22]: 0; Ragweed plant response rating [12]: 0; Plant response rating, Ragweed [12]: 0; Plant response rating, Barnyardgrass [13, 21]: 70; Plant response rating, Barnyardgrass [13, 22]: 50; Foxtail, Giant plant response rating [14]: 60; Plant response rating, Foxtail, Giant [14]: 80; Galium plant response rating [15]: 0; Plant response rating, Galium [15]: 0; Ryegrass, Italian plant response rating [16]: 0; Plant response rating, Ryegrass, Italian [16]: 10; Plant response rating, Ducksalad [17]: 65; Plant response rating, Barnyardgrass [18]: 50; Plant response rating, Sedge, Umbrella [19]: 0; Plant response rating, Rice [20]: 0 |
